Data taken from a melting point compilation (Tetko et al.; mined from patent text by program, amines drawn as free bases though some values may be those of a salt).

SMILES | melting point [°C]
O=C(CN1CCC(Cc2ccccc2)CC1)Nc1ccc2[nH]ncc2c1 | 170 to 174
C[Si](C)(CC[Si](C)(C)c1ccc(C(F)(F)F)cc1)c1ccc(C(F)(F)F)cc1 | 58 to 59
COc1ccc(C#Cc2ccncc2)c2c1OC1(CCCC1)C2 | 128 to 131
Clc1ccc(CN2CCN(CCN3CCCCC3)CC2c2ccccc2)cc1 (centres undefined) | 85 to 87
COc1cccc2c(CCOCc3ccc(-c4ccccc4)cc3)coc12 | 77 to 78
CC(=O)OCc1ccc(N(c2ccccc2)c2ccc(C=O)cc2)cc1 | 86 to 89
Nc1ncc2c(n1)-c1ccc(Cl)cc1C(c1ccccc1)=NC2 | 209 to 210
CCSc1nc2c(C)sc(C(=O)OC)c2n1Cc1ccc(-c2ccccc2C#N)cc1 | 149 to 151
COc1ccc(-c2cc(=O)c3c(O)cc(O)c(-c4cc(-c5cc(=O)c6c(O)cc(OC)cc6o5)ccc4OC)c3o2)cc1 | 295 to 298
CC(C)C[C@@H](C(=O)O)N1C(=O)[C@@H](N2C(=O)OC[C@@H]2c2ccccc2)[C@H]1CCc1ccccc1 | 138 to 140
Cc1c(-c2ccccc2)nc(N)nc1C1CCN(Cc2cccc(C#N)c2)CC1 | 176
COc1ccnc(CCc2nc3cc(C)cnc3[nH]2)c1 | 150 to 152
Cc1cc2c(cc1C)CC(=O)NC=C2 | 220 to 224
CCC(=O)Nc1cc(S(=O)c2ccccc2)ccc1NC(=NC(=O)OC)NC(=O)OC (centres undefined) | 193 to 195
CN1CC(C)(C)c2ccc(NC(=O)/C=C/c3ccc(C(C)(C)C)cc3)cc21 | 90 to 101
N#Cc1cn(C2CCc3ccccc3NC2=O)nn1 (centres undefined) | 214 to 216
Cc1ccccc1C(=O)Nc1ccc(C(=O)N2CCCC(CN)c3ccccc32)cc1 (centres undefined) | 233 to 235
COc1cc(C=O)ccc1OCc1csc(N2CCOCC2)n1 | 122 to 123
COC(=O)c1ccc(C(=O)NCc2cccc3ccccc23)s1 | 125
CS(=O)(=O)c1ccc(-n2cc(-c3cccc(F)c3)nc2-c2ccc(Cl)cc2)cc1 | 194 to 196
CCOC(=O)c1ccc(OCCCCCCc2cccc(O)c2O)cc1O | 63 to 68
CCCCN1C(=O)C2C(=O)N(Cc3cc(C)ccc3C)C(=O)C(C1=O)C2(C)C | 159 to 161
CCCc1cn(CC(=O)OCC)nc1OCc1ccc2ccccc2n1 | 82 to 83
C=CCOc1ccc(C(=O)C=Cc2cccnc2)c(O)c1 | 115 to 117
CCOC(=O)C(=Cc1cccn2cc(C)nc12)N=[N+]=[N-] | 121 to 123

SMILES | melting point [°C]
OC(=S)CCC1CCN(Cc2ccc3c(c2)Nc2nccnc2S3)CC1 | 110 to 113
COC[C@@H]1CCCN1S(=O)(=O)c1ccc(Cl)c(COc2cccc3c(-n4cccn4)cc(C)nc23)c1Cl | 75
CN1CCN(c2cccc3c2C[C@H](NC(=O)c2cccc(OS(C)(=O)=O)c2)CC3)CC1 | 159 to 160
OCC(CO)Cc1ccccc1 | 64 to 65
CN(C)c1c(C#N)cnc2c(NC(=O)c3c(Cl)cccc3Cl)cccc12 | 227 to 228
CCCCC1Cc2c(c3cccnc3n(-c3ccccc3)c2=O)O1 (centres undefined) | 179 to 180
O=[N+]([O-])c1cccnc1NCCc1c[nH]cn1 | 178 to 180
CN(O)C(=O)Cc1ccc(-c2ccc(OCc3ccc4ccccc4n3)cc2)c(F)c1 | 153 to 155
CC(C)(C)OC(=O)c1ccccc1CNC(=O)C1Cc2ccccc2N1S(=O)(=O)c1ccc(-c2cccc(C(F)(F)F)c2)cc1 (centres undefined) | 68
O=C(O)c1cc(-c2ccc3c(c2)CCO3)nn(CC=Cc2ccc(Cl)cc2)c1=O | 177 to 181
CCOC(=O)C1=C(C)Nc2nc(N(C)C)nc(N)c2C1c1ccccc1C(F)(F)F (centres undefined) | 210
CS(=O)(=O)Nc1cc(OCCNC2CCCC2)ccc1C(=O)Nc1ccccc1 | 231 to 232
O=C1NC(c2ccccc2)C(=O)NC1c1ccccc1 (centres undefined) | 282 to 284
COCCOC(=O)C1=C(C)NC(C)=C(C(=O)OC(C)C)C1c1ccccc1F (centres undefined) | 99 to 100
O=C(O)COc1cccc2c1CCc1sc(SC(c3cccc(F)c3)c3cccc(F)c3)nc1-2 | 155 to 158
CCCCCc1c(C(C)C)nc(C(C)C)c(C(C)O)c1-c1ccc(F)cc1 (centres undefined) | 83
Cc1ccc(C)n1CCNC(=S)Nc1ccc(C(=O)O)cc1 | 174 to 175
COC1(OC)CCCCC1N=O (centres undefined) | 108 to 120
COc1ccc(-c2coc3ccc(-c4nnc(SCc5cccc(Cl)c5)o4)cc23)cc1 | 155 to 156
CCOC(=O)c1c(CN(CC)CC)nc2ccc(Cl)cc2c1-c1ccc(Cl)cc1 | 132 to 133
COC(=O)c1ccc(C(=O)NS(=O)(=O)c2ccc(CCNC(=O)COc3ccccc3)cc2)cn1 | 201 to 203
COC(=O)C1CCCc2c(noc2-c2ccc(Cl)cc2)C1 (centres undefined) | 94 to 95
CCCCNC(=O)[C@@H]1Cc2ccccc2CN1 | 58 to 60
CC[C@@H](C)NCc1cnc2c(C)c(NC(=O)c3ccc(OC[C@@H]4CCCO4)cc3)ccc2c1 | 118 to 119
CCOC(=O)c1nc(Cl)nc(N)c1OC | 118 to 119

SMILES | melting point [°C]
CC1(C)C2CC[C@@]1(N1CCCCC1)C(=O)C2 | 78 to 79
O=c1ccc(S(=O)(=O)n2cc(Cl)c3ccccc32)n[nH]1 | > 220
CC(C)(C)OC(=O)CCc1ccnc(-c2nc(=O)c3ccccc3s2)c1 | 136 to 137
N=C(NNC(=O)c1ccccc1O)C(Cl)(Cl)Cl | 168 to 169
CCNc1cc(-c2c[nH]c(N)n2)ccn1 | 200 to 202
CC(C)C[C@H](NC(=O)c1ccc2c(c1)Nc1ccccc1S2)C(=O)N1CCC2(C1)OCCO2 | 75 to 77
O=c1c(Cl)c(OCc2ccc(F)cc2F)ccn1Cc1ccc2[nH]ccc2c1 | 152 to 153
N#Cc1nc(Cl)ccc1N | 162 to 165
O=C(O)c1cnc2cc(C(F)(F)F)ccc2c1Cl | 310
CCOC1CC(n2cc(C(F)(F)F)c(=O)[nH]c2=O)OC1CO (centres undefined) | 183 to 184
CCCCCC(CC(=O)Nc1cc(C(N)=O)ccc1C(C)(C)C)c1ccc(OCCCNS(C)(=O)=O)cc1OC (centres undefined) | 77 to 79
NS(=O)(=O)c1ccc(C2=C(c3ccc(F)c(Cl)c3)CCC2)cc1 | 150 to 152
COC(=O)c1ccc(CNC(=O)c2ccc(C(=O)NO)s2)cc1 | 156 to 166
CCOc1cc2ncc(C#N)c(Nc3cccc(Br)c3)c2cc1OCC | 173 to 175
ONc1ccccc1F | 70 to 71
Cc1c(C(=O)Nc2ccc(N3CCN(C4CCOCC4)CC3)c(C#N)c2)cnn1-c1ccccc1 | 227
COc1cc(CC(=O)NCCCc2ccc(C)c(C)c2)ccc1OCCO | 119 to 120
Cc1ccc2nc(-n3nc4c(c3O)-c3ccccc3CC4)sc2c1 | 218 to 219
CCC(=O)c1cccc(C(=O)Nc2ccccn2)c1 | 128 to 129
COc1ccc(Cl)cc1C(=O)NCC1CCOc2cc(OC)c(S(N)(=O)=O)cc21 (centres undefined) | 202
Cc1cccc2nc3n(c12)CC(c1ccccn1)S3 (centres undefined) | 128 to 130
CC[C@H](C)[C@H](NS(=O)(=O)c1ccc(C)cc1)C(=O)N[C@H](CO)Cc1c[nH]c2ccccc12 | 217 to 219
Cc1nn(-c2ccc(F)cc2)cc1C(=O)Nc1ccc(OCC(C)C)c(C#N)c1 | 179 to 180
C(C#Cc1c2ccccc2cc2ccccc12)#Cc1c2ccccc2cc2ccccc12 | 280 to 282
CSc1nc(N)nc(SC)c1-c1ccc(Cl)cc1Cl | 164 to 165

SMILES | melting point [°C]
CCC1(CC)CN(C(C)(C)C)C(=O)C(CC)(CC)N1OC(=O)C(C)(C)C | 58 to 60
CCCCC1(N(C)C)CC=C(c2[nH]c3ccccc3c2CCN2C(=O)c3ccccc3C2=O)CC1 (centres undefined) | 125 to 130
CC1(CN2CCC(Cc3ccc(F)cc3)CC2)CC(c2ccc3[nH]c(=O)oc3c2)=NO1 (centres undefined) | 82 to 86
CC(C)(C)OC1CCC2(C)C(=CC(=O)C3C4CCC(=O)C4(C)CCC32)C1 (centres undefined) | 189 to 191
CSc1nn2c(N3CCN(C)CC3)nc(C)nc2c1S(=O)(=O)c1ccccc1 | 169 to 171
CCOC(=O)C=Cc1ccc(C#CC2(O)CN3CCC2CC3)c(OCC)c1 (centres undefined) | 152 to 153
CSCc1c(N)c([N+](=O)[O-])cc(F)c1F | 110 to 112
Nc1nc(N)c2ncn(OCCCCP(=O)(O)O)c2n1 | 295 to 297
COCCN(CCOC)Cc1nc(-c2ncn3c2[C@@H]2CCN2C(=O)c2c(Cl)cccc2-3)no1 | 188 to 190
CCNc1c([N+](=O)[O-])cc2c(=O)c(C(=O)O)cn(-c3cc(N)c(F)cc3F)c2c1C | 250 to 254
COc1nc(OC)c(C(C)C)c(C(=O)c2cc(Cl)cc(Cl)c2)n1 | 120 to 121
O=C(Cc1cccc(C(F)(F)F)c1)Cn1cncn1 | 85 to 87
O=c1oc(-c2ccc(C(F)(F)F)cc2)nn1Cc1cc(Cl)ccc1O | 144 to 145
CCC1(CO)COC2(CC(c3ccc(Cl)cc3)SC(c3ccc(Cl)cc3)C2)OC1 (centres undefined) | 138
CCN(CC)C(=S)Oc1cccnc1F | 52 to 54
CS(=O)(=O)c1cc(C(N)Nc2ccccc2C(=O)Nc2cccc(C(F)(F)F)c2)ccn1 (centres undefined) | 214
CCCCCCc1cc(SC)ccc1OC(=O)c1ccccc1 | 57 to 58
CCc1nc(C)n2nc(C(=O)O)nc2c1Cc1ccc(-c2ccccc2-c2nnn[nH]2)cc1 | 194 to 198
CC(C)n1cc(C(=O)O)c2ccc([N+](=O)[O-])cc21 | 242 to 243
O=CN(O)C(CCO)CS(=O)(=O)c1ccc(-c2ccc(Cl)cc2)cc1 (centres undefined) | 158 to 159
CCC1(CCCCN2CCN(c3ccccn3)CC2)C(=O)Nc2ccc(F)cc21 (centres undefined) | 144 to 147
CCOP(=O)(COS(=O)(=O)c1c(C)cccc1Cl)OCC | 41 to 43
O=C(O)c1ncn2c(C(F)F)cc(-c3ccc(C(F)(F)F)cc3)nc12 | 238
NCCc1cccc(Cn2ccc(OCc3ccc(F)cc3F)c(Br)c2=O)c1 | 70 to 74
